Assay results taken from ChEMBL document CHEMBL1201862, “PubChem BioAssay data set” (2004).
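Cultured in 96-well plates, cells were exposed to test compound for 48 hours across five concentrations. The concentration for 50% growth inhibition is given as GI50.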 Activity calls are given as the source filed them. No stated cut-off is given here; in the data, active = GI50 up to about 1.1 µM and inactive = higher.

Experiments:
Experiment in all cases: NCI-60 cell line screen, 48 h
SK-MEL-28 = test system: SK-MEL-28
OVCAR-3 = test system: OVCAR-3
U-251 = test system: U-251
SR = test system: SR
HOP-92 = test system: HOP-92
NCI-H23 = test system: NCI-H23
HCT-15 = test system: HCT-15
SN12C = test system: SN12C
COLO 205 = test system: COLO 205
NCI/ADR-RES = test system: NCI/ADR-RES
OVCAR-8 = test system: OVCAR-8
TK-10 = test system: TK-10
SNB-75 = test system: SNB-75
IGROV-1 = test system: IGROV-1
MOLT-4 = test system: MOLT-4
NCI-H226 = test system: NCI-H226
SF-295 = test system: SF-295
UACC-257 = test system: UACC-257
UACC-62 = test system: UACC-62
KM12 = test system: KM12
RPMI-8226 = test system: RPMI-8226
SK-MEL-5 = test system: SK-MEL-5
BT-549 = test system: BT-549
ACHN = test system: ACHN
EKVX = test system: EKVX
MCF7 = test system: MCF7
K562 = test system: K562
DU-145 = test system: DU-145
PC-3 = test system: PC-3
A498 = test system: A498
Hs-578T = test system: Hs-578T
NCI-H460 = test system: NCI-H460
CAKI-1 = test system: CAKI-1
SK-MEL-2 = test system: SK-MEL-2
UO-31 = test system: UO-31
OVCAR-4 = test system: OVCAR-4
HOP-62 = test system: HOP-62
Malme-3M = test system: Malme-3M
OVCAR-5 = test system: OVCAR-5
SF-268 = test system: SF-268
HCC 2998 = test system: HCC 2998
MDA-MB-435 = test system: MDA-MB-435
CCRF-CEM = test system: CCRF-CEM
SF-539 = test system: SF-539
HCT-116 = test system: HCT-116
LOX IMVI = test system: LOX IMVI
SK-OV-3 = test system: SK-OV-3
786-0 = test system: 786-0
RXF 393 = test system: RXF 393
SNB-19 = test system: SNB-19
MDA-MB-231 = test system: MDA-MB-231
M14 = test system: M14
SW-620 = test system: SW-620
A549 = test system: A549
NCI-H522 = test system: NCI-H522
T47D = test system: T47D
HL-60 = test system: HL-60
HT-29 = test system: HT-29

O=C1NC(c2cccc3ccccc23)Nc2ccccc21 (stereo not given)
GI50 (SK-MEL-28): 0.127 µM (active) | GI50 (OVCAR-3): 0.015 µM (active) | GI50 (U-251): 0.0336 µM (active) | GI50 (SR): < 0.0153 µM (active) | GI50 (HOP-92): 0.172 µM (active) | GI50 (NCI-H23): 0.0931 µM (active) | GI50 (HCT-15): < 0.0224 µM | GI50 (SN12C): 0.132 µM (active) | GI50 (COLO 205): 0.0458 µM (active) | GI50 (NCI/ADR-RES): < 0.0199 µM (active) | GI50 (OVCAR-8): 0.105 µM (active) | GI50 (TK-10): 0.157 µM (active) | GI50 (SNB-75): 0.0111 µM (active) | GI50 (IGROV-1): 0.0457 µM (active) | GI50 (MOLT-4): 0.0528 µM (active) | GI50 (NCI-H226): 0.0875 µM (active) | GI50 (SF-295): < 0.0202 µM (active) | GI50 (UACC-257): 0.0465 µM (active) | GI50 (UACC-62): < 0.0184 µM (active) | GI50 (KM12): 0.0399 µM (active) | GI50 (RPMI-8226): 0.0257 µM (active) | GI50 (SK-MEL-5): < 0.0202 µM (active) | GI50 (BT-549): 0.454 µM (active) | GI50 (ACHN): 0.0708 µM (active) | GI50 (EKVX): 0.143 µM (active) | GI50 (MCF7): < 0.0171 µM (active) | GI50 (K562): < 0.0212 µM (active) | GI50 (DU-145): 0.064 µM (active) | GI50 (PC-3): 0.0423 µM (active) | GI50 (A498): 0.0262 µM (active) | GI50 (Hs-578T): 0.0147 µM (active) | GI50 (NCI-H460): 0.0506 µM (active) | GI50 (CAKI-1): < 0.0409 µM (active) | GI50 (SK-MEL-2): 0.04 µM (active) | GI50 (UO-31): 1.05 µM (active) | GI50 (OVCAR-4): 0.00931 µM (active) | GI50 (HOP-62): 0.139 µM (active) | GI50 (Malme-3M): 0.0463 µM (active) | GI50 (OVCAR-5): 0.133 µM (active) | GI50 (SF-268): 0.832 µM (active) | GI50 (HCC 2998): 0.0736 µM (active) | GI50 (MDA-MB-435): 0.0153 µM (active) | GI50 (CCRF-CEM): 0.01 µM (active) | GI50 (SF-539): 0.0363 µM (active) | GI50 (HCT-116): 0.0336 µM (active) | GI50 (LOX IMVI): 0.0906 µM (active) | GI50 (SK-OV-3): 0.0362 µM (active) | GI50 (786-0): 0.0593 µM (active) | GI50 (RXF 393): 0.0302 µM (active) | GI50 (SNB-19): 0.0399 µM (active) | GI50 (MDA-MB-231): 0.0873 µM (active) | GI50 (M14): 0.0298 µM (active) | GI50 (SW-620): 0.0277 µM (active) | GI50 (A549): 0.0968 µM (active)

Cc1ccc(O)c(C(c2ccc([N+](=O)[O-])cc2)c2cc(C)ccc2O)c1
GI50 (SK-MEL-28): 16.6 µM (inactive) | GI50 (OVCAR-3): 6.32 µM (inactive) | GI50 (U-251): 16.8 µM (inactive) | GI50 (SR): 3.98 µM (inactive) | GI50 (HOP-92): 11.1 µM (inactive) | GI50 (NCI-H23): 7.93 µM (inactive) | GI50 (HCT-15): 8.18 µM | GI50 (SN12C): 13.7 µM (inactive) | GI50 (COLO 205): 20.7 µM (inactive) | GI50 (NCI/ADR-RES): 10.7 µM (inactive) | GI50 (NCI-H522): 12.3 µM (inactive) | GI50 (OVCAR-8): 11.7 µM (inactive) | GI50 (T47D): 11.2 µM (inactive) | GI50 (TK-10): 16.3 µM (inactive) | GI50 (SNB-75): 2.18 µM (inactive) | GI50 (HL-60): 1.47 µM (inactive) | GI50 (IGROV-1): 11 µM (inactive) | GI50 (MOLT-4): 5.12 µM (inactive) | GI50 (NCI-H226): 15.9 µM (inactive) | GI50 (SF-295): 14.5 µM (inactive) | GI50 (UACC-257): 14.6 µM (inactive) | GI50 (UACC-62): 7.4 µM (inactive) | GI50 (KM12): 7.35 µM (inactive) | GI50 (RPMI-8226): 10.1 µM (inactive) | GI50 (SK-MEL-5): 5.75 µM (inactive) | GI50 (ACHN): 6.1 µM (inactive) | GI50 (EKVX): 14.3 µM (inactive) | GI50 (MCF7): 4.98 µM (inactive) | GI50 (K562): 12.2 µM (inactive) | GI50 (DU-145): 12.1 µM (inactive) | GI50 (PC-3): 3.59 µM (inactive) | GI50 (A498): 18.4 µM (inactive) | GI50 (Hs-578T): 7.69 µM (inactive) | GI50 (CAKI-1): 15.1 µM (inactive) | GI50 (SK-MEL-2): 11.5 µM (inactive) | GI50 (UO-31): 3.27 µM (inactive) | GI50 (OVCAR-4): 10.5 µM (inactive) | GI50 (HT-29): 12.2 µM (inactive) | GI50 (HOP-62): 10.8 µM (inactive) | GI50 (OVCAR-5): 14.6 µM (inactive) | GI50 (SF-268): 5.57 µM (inactive) | GI50 (HCC 2998): 2.99 µM (inactive) | GI50 (MDA-MB-435): 10.9 µM (inactive) | GI50 (CCRF-CEM): 10.8 µM (inactive) | GI50 (SF-539): 15.3 µM (inactive) | GI50 (HCT-116): 14.4 µM (inactive) | GI50 (LOX IMVI): 22.7 µM (inactive) | GI50 (SK-OV-3): 15.1 µM (inactive) | GI50 (786-0): 21.2 µM (inactive) | GI50 (RXF 393): 8.09 µM (inactive) | GI50 (SNB-19): 13.1 µM (inactive) | GI50 (MDA-MB-231): 12 µM (inactive) | GI50 (M14): 11.7 µM (inactive) | GI50 (SW-620): 13.5 µM (inactive) | GI50 (A549): 9.66 µM (inactive)

COC(=O)C1C(O)CCC2CN3CCc4c([nH]c5ccccc45)C3CC21 (stereo not given)
GI50 (SK-MEL-28): 76 µM (inactive) | GI50 (OVCAR-3): > 100 µM (inactive) | GI50 (U-251): > 100 µM (inactive) | GI50 (HCT-15): > 100 µM | GI50 (T47D): > 100 µM (inactive) | GI50 (SNB-75): > 100 µM (inactive) | GI50 (IGROV-1): > 100 µM (inactive) | GI50 (UACC-257): > 100 µM (inactive) | GI50 (BT-549): > 100 µM (inactive) | GI50 (EKVX): > 100 µM (inactive) | GI50 (PC-3): > 100 µM (inactive) | GI50 (NCI-H460): > 100 µM (inactive) | GI50 (UO-31): > 100 µM (inactive) | GI50 (OVCAR-5): > 100 µM (inactive) | GI50 (SF-268): > 100 µM (inactive) | GI50 (HCC 2998): 59.4 µM (inactive) | GI50 (MDA-MB-435): > 100 µM (inactive) | GI50 (SK-OV-3): > 100 µM (inactive) | GI50 (786-0): > 100 µM (inactive) | GI50 (SW-620): > 100 µM (inactive) | GI50 (A549): > 100 µM (inactive)
